This test deals with HSP27 (Homo sapiens, UniProt P04792). The test is described as follows: Capillary electrophoresis of heat-denatured citrate synthase protein precipitates. The test is classed as biochemical. The note with it: for Efficacy compared with BVDU: 10 μmol/L vs 750 μmol/L BVDU, 43° C. for 70 minutes (Table 3); for Rel. quantity of protein prec. CS: 10 μmol/L, 43° C. for 70 minutes, relative to 750 μmol/L BVDU = 1 (Table 3). The protocol:
Since the heat-denatured protein aggregates of the citrate synthase from Example 1 are not water-soluble, these can be separated completely from the supernatant by means of centrifugation at room temperature at 16,000×g, 10 min. By using capillary electrophoresis, the compositions of the separated precipitates can be shown and quantified. The relative quantity of protein of precipitated citrate synthase serves as a measure of the efficacy of the test substances.
In each case, 481 nmol/L HSP27 and 1.44 μmol/L citrate synthase in 40 mmol/L HEPES buffer, pH 7.4, were employed. The relative quantity of protein of the precipitated citrate synthase in each case was normalized using a defined quantity of BSA as internal standard. The relative quantity of protein that precipitated when using 750 μmol/L BVDU was set at 1. The other test substances (2 representatives of phenothiazine derivatives of general formula (V), 2 representatives of purine derivatives of formula (I) or (II)) were each employed at a concentration of 10 μmol/L.
Since the heat-denatured protein aggregates of the citrate synthase from Example 2 are not water-soluble, these can be separated completely from the supernatant by means of centrifugation at room temperature at 16,000×g, 10 min. By using capillary electrophoresis, the compositions of the separated precipitates can be shown and quantified. The relative quantity of protein of precipitated citrate synthase serves as a measure of the efficacy of the test substances.
In each case, 481 nM HSP27 and 1.44 μmol/L citrate synthase in 40 mmol/L HEPES buffer, pH 7.4, were employed. The relative quantity of protein of the precipitated citrate synthase in each case was normalized using a defined quantity of BSA as internal standard. The relative quantity of protein that precipitated when using 750 μmol/L BVDU was set at 1. The other test substances (2 representatives of phenothiazine derivatives of general formula (V), 2 representatives of thymine derivatives of formula (I) or (II)) were employed at a concentration of 10 μmol/L in each case.
Otherwise, the experiments were performed as described above: […]

Molecules are shown by their SMILES.

Chain of HSP27 (P04792 whole entry): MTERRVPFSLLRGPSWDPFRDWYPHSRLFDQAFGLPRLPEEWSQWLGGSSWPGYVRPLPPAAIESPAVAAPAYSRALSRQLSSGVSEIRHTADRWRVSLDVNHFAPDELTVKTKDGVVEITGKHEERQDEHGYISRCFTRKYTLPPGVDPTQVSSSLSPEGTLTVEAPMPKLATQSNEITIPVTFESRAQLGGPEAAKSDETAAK

Regarding `O=C(Cc1ccc2ccccc2c1)NC/C=C\Cn1ccc(=O)[nH]c1=O` [N-[(2Z)-4-(2,4-Dioxo-3H-pyrimidin-1-yl)but-2-en-1-yl]-2-(naphthalen-2-yl)acetamide], the “Efficacy compared with BVDU” value is 86.25 x and the “Rel. quantity of protein prec. CS” value stood at 1.15.

Regarding `Cc1cn(CCCCNC(=O)C(c2ccccc2)c2ccccc2)c(=O)[nH]c1=O` [N-[4-(5-Methyl-2,4-dioxo-3H-pyrimidin-1-yl)butyl]-2,2-diphenylacetamide], the “Efficacy compared with BVDU” value was 58.97 x and the “Rel. quantity of protein prec. CS” value is listed as 0.79.

For the compound `Cc1cn([C@H]2C[C@H](n3cc(CC4CCCC4)nn3)[C@@H](CO)O2)c(=O)[nH]c1=O` [3′-[4-(Cyclopentylmethyl)-1H-1,2,3-triazol-1-yl]-3′-deoxythymidine], the “Efficacy compared with BVDU” value was 49.63 x and the “Rel. quantity of protein prec. CS” value turned out to be 0.66.

For the compound `Cc1cn(C2C[C@H](n3cc(-c4cccc(Br)c4)nn3)[C@@H](CO)O2)c(=O)[nH]c1=O` (stereo partly drawn) [1-[(4S,5S)-4-[4-(3-Bromophenyl)-1H-1,2,3-triazol-1-yl]-5-(hydroxymethyl)oxolan-2-yl]-5-methyl-1,2,3,4-tetrahydropyrimidine-2,4-dione], the “Efficacy compared with BVDU” value is recorded as 60.88 x and the “Rel. quantity of protein prec. CS” value came out at 0.81.

Consider `Cc1cn([C@H]2C[C@H](n3cc(-c4ccccn4)nn3)[C@@H](CO)O2)c(=O)[nH]c1=O` [3′-Deoxy-3′-[4-(2-pyridinyl)-1H-1,2,3-triazol-1]-yl]thymidine], for which the “Efficacy compared with BVDU” value came to 62.86 x and the “Rel. quantity of protein prec. CS” value came to 0.84.

Regarding `Cc1cn(CCCCNC(=O)C2c3ccccc3Oc3ccccc32)c(=O)[nH]c1=O` [N-[4-(5-Methyl-2,4-dioxo-3H-pyrimidin-1-yl)butyl]-9H-xanthene-9-carboxamide], the “Efficacy compared with BVDU” value worked out at 51.16 x and the “Rel. quantity of protein prec. CS” value is 0.68.

For the compound `Cc1cn(C/C=C\CNC(=O)Cc2ccc3ccccc3c2)c(=O)[nH]c1=O` [N-[(2Z)-4-(5-Methyl-2,4-dioxo-3H-pyrimidin-1-yl)but-2-en-1-yl]-2-(naphthalen-2-yl)acetamide], the “Efficacy compared with BVDU” value turned out to be 62.51 x and the “Rel. quantity of protein prec. CS” value came out at 0.83.

Regarding `O=C(NC/C=C\Cn1ccc(=O)[nH]c1=O)C1c2ccccc2OC2C=CC=CC21` (stereo not drawn) [N-[(2Z)-4-(2,4-Dioxo-3H-pyrimidin-1-yl)but-2-en-1-yl]-9,9a-dihydro-4aH-xanthene-9-carboxamide], the “Efficacy compared with BVDU” value is 63.38 x and the “Rel. quantity of protein prec. CS” value turned out to be 0.85.

With `Cc1cn([C@H]2C[C@H](n3cc(-c4ccccc4)nn3)[C@@H](CO)O2)c(=O)[nH]c1=O` [3′-Deoxy-3′-(4-phenyl-1H-1,2,3-triazol-1-yl)thymidine], the “Efficacy compared with BVDU” value was found to be 59.07 x and the “Rel. quantity of protein prec. CS” value was determined as 0.79.

Regarding `CCCCCc1cn([C@H]2C[C@H](n3cc(C)c(=O)[nH]c3=O)O[C@@H]2CO)nn1` [3′-Deoxy-3′-(4-pentyl-1H-1,2,3-triazol-1-yl)thymidine], the “Efficacy compared with BVDU” value is on record as 52.57 x and the “Rel. quantity of protein prec. CS” value amounted to 0.70.

With `Cc1cn(C/C=C\CNC(=O)Cc2cccc3ccccc23)c(=O)[nH]c1=O` [N-[(2Z)-4-(5-Methyl-2,4-dioxo-3H-pyrimidin-1-yl)but-2-en-1-yl]-2-(naphthalen-1-yl)acetamide], the “Efficacy compared with BVDU” value was determined as 60.44 x and the “Rel. quantity of protein prec. CS” value amounted to 0.81.

Turning to `Cc1cn(C/C=C\CNC(=O)C2c3ccccc3-c3ccccc32)c(=O)[nH]c1=O` [N-[(2Z)-4-(5-Methyl-2,4-dioxo-3H-pyrimidin-1-yl)but-2-en-1-yl]-9H-fluorene-9-carboxamide], the “Efficacy compared with BVDU” value turned out to be 64.31 x and the “Rel. quantity of protein prec. CS” value came to 0.86.

For `COc1ccc(-c2cn([C@H]3CC(n4cc(C)c(=O)[nH]c4=O)O[C@@H]3CO)nn2)cc1` (stereo partly drawn) [1-[(4S,5S)-5-(Hydroxymethyl)-4-[4-(4-methoxyphenyl)-1,2,3-triazol-1-yl]oxolan-2-yl]-5-methyl-3H-pyrimidine-2,4-dione], the “Efficacy compared with BVDU” value is given as 55.89 x and the “Rel. quantity of protein prec. CS” value worked out at 0.75.

On to `O=C(Cc1ccc(-c2ccccc2)cc1)NC/C=C\Cn1ccc(=O)[nH]c1=O` [N-[(2Z)-4-(2,4-Dioxo-3H-pyrimidin-1-yl)but-2-en-1-yl]-2-(4-phenylphenyl)acetamide], for which the “Efficacy compared with BVDU” value came out at 66.15 x and the “Rel. quantity of protein prec. CS” value is listed as 0.88.

With `Cc1cn([C@H]2C[C@H](n3cc(CCc4ccccc4)nn3)[C@@H](CO)O2)c(=O)[nH]c1=O` [3′-Deoxy-3′-[4-(2-phenylethyl)-1H-1,2,3-triazol-1-yl]-thymidine], the “Efficacy compared with BVDU” value was determined as 55.67 x and the “Rel. quantity of protein prec. CS” value is reported as 0.74.

In the case of `Cc1cn([C@H]2C[C@H](n3cc(-c4ccc(Cl)c(Cl)c4)nn3)[C@@H](CO)O2)c(=O)[nH]c1=O` [3′-Deoxy-3′-[4-(3,4-dichlorophenyl)-1H-1,2,3-triazol-1-yl]-thymidine], the “Efficacy compared with BVDU” value stood at 64.21 x and the “Rel. quantity of protein prec. CS” value is on record as 0.86.

For the compound `Cc1cn(C2C[C@H](n3cc(-c4ccc(Br)cc4)nn3)[C@@H](CO)O2)c(=O)[nH]c1=O` (stereo partly drawn) [1-[(4S,5S)-4-[4-(4-Bromophenyl)-1,2,3-triazol-1-yl]-5-(hydroxymethyl)oxolan-2-yl]-5-methyl-3H-pyrimidine-2,4-dione], the “Efficacy compared with BVDU” value stood at 48.14 x and the “Rel. quantity of protein prec. CS” value was determined as 0.64.

As for `Cc1cn(CCCCNC(=O)Cc2ccc(-c3ccccc3)cc2)c(=O)[nH]c1=O` [N-[4-(5-Methyl-2,4-dioxo-3H-pyrimidin-1-yl)butyl]-2-(4-phenylphenyl)acetamide], the “Efficacy compared with BVDU” value is 50.52 x and the “Rel. quantity of protein prec. CS” value was determined as 0.67.

With `Cc1cn([C@H]2C[C@H](n3cc(C(C)(C)C)nn3)[C@@H](CO)O2)c(=O)[nH]c1=O` [3′-Deoxy-3′-[4-(2-methyl-2-propanyl)-1H-1,2,3-triazol-1-yl]thymidine], the “Efficacy compared with BVDU” value is given as 46.01 x and the “Rel. quantity of protein prec. CS” value is 0.61.

For the compound `CCCCc1cn([C@H]2C[C@H](n3cc(C)c(=O)[nH]c3=O)O[C@@H]2CO)nn1` [3′-(4-Butyl-1H-1,2,3-triazol-1-yl)-3′-deoxythymidine], the “Efficacy compared with BVDU” value was determined as 57.08 x and the “Rel. quantity of protein prec. CS” value was 0.76.

Regarding `Cc1cn(CCCCNC(=O)Cc2ccc3ccccc3c2)c(=O)[nH]c1=O` [N-[4-(5-Methyl-2,4-dioxo-3H-pyrimidin-1-yl)butyl]-2-(naphthalen-2-yl)acetamide], the “Efficacy compared with BVDU” value worked out at 56.36 x and the “Rel. quantity of protein prec. CS” value was 0.75.

Turning to `Cc1cn([C@H]2C[C@H](n3cc(-c4ccc(F)cc4)nn3)[C@@H](CO)O2)c(=O)[nH]c1=O` [3′-Deoxy-3′-[4-(4-fluorophenyl)-1H-1,2,3-triazol-1-yl]-thymidine], the “Efficacy compared with BVDU” value is 49.69 x and the “Rel. quantity of protein prec. CS” value turned out to be 0.66.

As for `Cc1cn(C/C=C\CNC(=O)c2cccc3ccccc23)c(=O)[nH]c1=O` [N-[(2Z)-4-(5-Methyl-2,4-dioxo-3H-pyrimidin-1-yl)but-2-en-1-yl]naphthalene-1-carboxamide], the “Efficacy compared with BVDU” value was determined as 58.73 x and the “Rel. quantity of protein prec. CS” value stood at 0.78.

For the compound `Cc1cn([C@H]2C[C@H](n3cc(-c4ccc(Cl)cc4)nn3)[C@@H](CO)O2)c(=O)[nH]c1=O` [3′-[4-(4-Chlorophenyl)-1H-1,2,3-triazol-1-yl]-3′-deoxythymidine], the “Efficacy compared with BVDU” value is 50.53 x and the “Rel. quantity of protein prec. CS” value is on record as 0.67.

`Cc1cn(C/C=C\CNC(=O)C(c2ccccc2)c2ccccc2)c(=O)[nH]c1=O` [N-[(2Z)-4-(5-Methyl-2,4-dioxo-3H-pyrimidin-1-yl)but-2-en-1-yl]-2,2-diphenylacetamide]: the “Efficacy compared with BVDU” value is reported as 61.19 x and the “Rel. quantity of protein prec. CS” value is listed as 0.82.

In the case of `Cc1cn(CCCCNC(=O)C2c3ccccc3-c3ccccc32)c(=O)[nH]c1=O` [N-[4-(5-Methyl-2,4-dioxo-3H-pyrimidin-1-yl)butyl]-9H-fluorene-9-carboxamide], the “Efficacy compared with BVDU” value is listed as 43.30 x and the “Rel. quantity of protein prec. CS” value is 0.58.

For `CCCc1cn([C@H]2C[C@H](n3cc(C)c(=O)[nH]c3=O)O[C@@H]2CO)nn1` [3′-Deoxy-3′-(4-propyl-1H-1,2,3-triazol-1-yl)thymidine], the “Efficacy compared with BVDU” value was determined as 59.59 x and the “Rel. quantity of protein prec. CS” value is on record as 0.79.
